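Growth conditions: 96-well plates. Treatment: test compound, 48 hours, 5 concentrations. Analysis: linear interpolation between bracketing concentrations; unreached endpoints set to highest concentration. Here, GI50 denotes the concentration required for 50% inhibition of growth. TGI is the concentration that stops growth completely.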
Tests used:
Assay in all cases: DTP human tumour cell line panel, 48 h
NCI-H23 lung = tested on: NCI-H23 lung
IGROV1 ovarian = tested on: IGROV1 ovarian
RPMI-8226 leukemia = tested on: RPMI-8226 leukemia
SK-OV-3 ovarian = tested on: SK-OV-3 ovarian
MALME-3M melanoma = tested on: MALME-3M melanoma
OVCAR-4 ovarian = tested on: OVCAR-4 ovarian
RXF 393 renal = tested on: RXF 393 renal
UACC-62 melanoma = tested on: UACC-62 melanoma
SW-620 colon = tested on: SW-620 colon
OVCAR-3 ovarian = tested on: OVCAR-3 ovarian
NCI-H226 lung = tested on: NCI-H226 lung
MDA-MB-435 = tested on: MDA-MB-435
CCRF-CEM leukemia = tested on: CCRF-CEM leukemia
MDA-MB-231 breast = tested on: MDA-MB-231 breast
A549 NSCLC = tested on: A549 NSCLC
U251 CNS = tested on: U251 CNS
HCC-2998 colon = tested on: HCC-2998 colon
UO-31 renal = tested on: UO-31 renal
OVCAR-8 ovarian = tested on: OVCAR-8 ovarian
SK-MEL-5 melanoma = tested on: SK-MEL-5 melanoma
SF-268 CNS = tested on: SF-268 CNS
M14 melanoma = tested on: M14 melanoma
PC-3 prostate = tested on: PC-3 prostate
HCT-116 colon = tested on: HCT-116 colon
ACHN renal = tested on: ACHN renal
LOX IMVI melanoma = tested on: LOX IMVI melanoma
MCF7 breast = tested on: MCF7 breast
NCI-H522 lung = tested on: NCI-H522 lung
T-47D breast = tested on: T-47D breast
SF-295 CNS = tested on: SF-295 CNS
UACC-257 melanoma = tested on: UACC-257 melanoma
HOP-92 NSCLC = tested on: HOP-92 NSCLC
TK-10 renal = tested on: TK-10 renal
SF-539 CNS = tested on: SF-539 CNS
DU-145 prostate = tested on: DU-145 prostate
MOLT-4 leukemia = tested on: MOLT-4 leukemia
NCI-H460 lung = tested on: NCI-H460 lung
BT-549 breast = tested on: BT-549 breast
786-0 renal = tested on: 786-0 renal
EKVX NSCLC = tested on: EKVX NSCLC
HCT-15 colon = tested on: HCT-15 colon
COLO 205 colon = tested on: COLO 205 colon
NCI/ADR-RES ovarian = tested on: NCI/ADR-RES ovarian
SK-MEL-2 melanoma = tested on: SK-MEL-2 melanoma
OVCAR-5 ovarian = tested on: OVCAR-5 ovarian
SK-MEL-28 melanoma = tested on: SK-MEL-28 melanoma
SN12C renal = tested on: SN12C renal
HT29 colon = tested on: HT29 colon
K-562 leukemia = tested on: K-562 leukemia
A498 renal = tested on: A498 renal
SNB-19 CNS = tested on: SNB-19 CNS
HOP-62 NSCLC = tested on: HOP-62 NSCLC
HS 578T breast = tested on: HS 578T breast
CAKI-1 renal = tested on: CAKI-1 renal
KM12 colon = tested on: KM12 colon

COC(=O)c1c(C)nc(C)c2c1C(=O)C(Br)=C(NCc1ccccc1)C2=O
GI50 (NCI-H23 lung): 1.89 µM
TGI (NCI-H23 lung): 5.19 µM
GI50 (IGROV1 ovarian): 2.05 µM
TGI (IGROV1 ovarian): 5.45 µM
GI50 (RPMI-8226 leukemia): 3.24 µM
TGI (RPMI-8226 leukemia): 11.7 µM
GI50 (SK-OV-3 ovarian): 6.2 µM
TGI (SK-OV-3 ovarian): 19.2 µM
GI50 (MALME-3M melanoma): 1.47 µM
TGI (MALME-3M melanoma): 2.85 µM
GI50 (OVCAR-4 ovarian): 1.55 µM
TGI (OVCAR-4 ovarian): 3 µM
GI50 (RXF 393 renal): 3.08 µM
TGI (RXF 393 renal): 9.69 µM
GI50 (UACC-62 melanoma): 1.41 µM
TGI (UACC-62 melanoma): 2.93 µM
GI50 (SW-620 colon): 3.39 µM
TGI (SW-620 colon): 10.7 µM
GI50 (OVCAR-3 ovarian): 2.27 µM
TGI (OVCAR-3 ovarian): 6.16 µM
GI50 (NCI-H226 lung): 4.01 µM
TGI (NCI-H226 lung): 18 µM
GI50 (MDA-MB-435): 1.86 µM
TGI (MDA-MB-435): 3.38 µM
GI50 (CCRF-CEM leukemia): 3.11 µM
TGI (CCRF-CEM leukemia): 36.8 µM
GI50 (MDA-MB-231 breast): 2.11 µM
TGI (MDA-MB-231 breast): 8.4 µM
GI50 (A549 NSCLC): 2.56 µM
TGI (A549 NSCLC): 6.64 µM
GI50 (U251 CNS): 2.74 µM
TGI (U251 CNS): 8.34 µM
GI50 (HCC-2998 colon): 3.4 µM
TGI (HCC-2998 colon): 10.5 µM
GI50 (UO-31 renal): 2.41 µM
TGI (UO-31 renal): 10.7 µM
GI50 (OVCAR-8 ovarian): 2.51 µM
TGI (OVCAR-8 ovarian): 7.24 µM
GI50 (SK-MEL-5 melanoma): 1.47 µM
TGI (SK-MEL-5 melanoma): 2.85 µM
GI50 (SF-268 CNS): 3.46 µM
TGI (SF-268 CNS): 13.5 µM
GI50 (M14 melanoma): 2.06 µM
TGI (M14 melanoma): 4.81 µM
GI50 (PC-3 prostate): 2.73 µM
TGI (PC-3 prostate): 10.9 µM
GI50 (HCT-116 colon): 2.5 µM
TGI (HCT-116 colon): 7.22 µM
GI50 (ACHN renal): 3.08 µM
TGI (ACHN renal): 9.97 µM
GI50 (LOX IMVI melanoma): 2.45 µM
TGI (LOX IMVI melanoma): 10.8 µM
GI50 (MCF7 breast): 1.3 µM
TGI (MCF7 breast): 3.29 µM
GI50 (NCI-H522 lung): 2.25 µM
TGI (NCI-H522 lung): 6.09 µM
GI50 (T-47D breast): 2.26 µM
TGI (T-47D breast): 5 µM
GI50 (SF-295 CNS): 3.04 µM
TGI (SF-295 CNS): 10.4 µM
GI50 (UACC-257 melanoma): 1.62 µM
TGI (UACC-257 melanoma): 3.19 µM
GI50 (HOP-92 NSCLC): 2.46 µM
TGI (HOP-92 NSCLC): 5.78 µM
GI50 (TK-10 renal): 10.1 µM
TGI (TK-10 renal): 21.9 µM
GI50 (SF-539 CNS): 2.85 µM
TGI (SF-539 CNS): 8.01 µM
GI50 (DU-145 prostate): 4.26 µM
TGI (DU-145 prostate): 13 µM
GI50 (MOLT-4 leukemia): 3.09 µM
TGI (MOLT-4 leukemia): 10.8 µM
GI50 (NCI-H460 lung): 2.94 µM
TGI (NCI-H460 lung): 11.5 µM
GI50 (BT-549 breast): 4.09 µM
TGI (BT-549 breast): 15.4 µM
GI50 (786-0 renal): 4.65 µM
TGI (786-0 renal): 16.3 µM
GI50 (EKVX NSCLC): 2.12 µM
TGI (EKVX NSCLC): 5.35 µM
GI50 (HCT-15 colon): 2.76 µM
TGI (HCT-15 colon): 8.26 µM
GI50 (COLO 205 colon): 1.7 µM
TGI (COLO 205 colon): 3.63 µM
GI50 (NCI/ADR-RES ovarian): 2.83 µM
TGI (NCI/ADR-RES ovarian): 8.16 µM
GI50 (SK-MEL-2 melanoma): 2.52 µM
TGI (SK-MEL-2 melanoma): 6.63 µM
GI50 (OVCAR-5 ovarian): 3.11 µM
TGI (OVCAR-5 ovarian): 7.9 µM
GI50 (SK-MEL-28 melanoma): 5.79 µM
TGI (SK-MEL-28 melanoma): 17.5 µM
GI50 (SN12C renal): 1.49 µM
TGI (SN12C renal): 3.45 µM
GI50 (HT29 colon): 2.97 µM
TGI (HT29 colon): 7.96 µM
GI50 (K-562 leukemia): 3.36 µM
TGI (K-562 leukemia): > 100 µM
GI50 (A498 renal): 4.48 µM
TGI (A498 renal): 17.3 µM
GI50 (SNB-19 CNS): 3.04 µM
TGI (SNB-19 CNS): 9.23 µM
GI50 (HOP-62 NSCLC): 3.12 µM
TGI (HOP-62 NSCLC): 10.8 µM
GI50 (HS 578T breast): 10.8 µM
TGI (HS 578T breast): > 100 µM
GI50 (CAKI-1 renal): 5.66 µM
TGI (CAKI-1 renal): 18.7 µM
GI50 (KM12 colon): 2.93 µM
TGI (KM12 colon): 13.4 µM
